US7259170B2, “Macrolides containing pharmaceutical compositions” (Novartis AG, priority 2001, dated 2007)
Where a name gives a salt, the structure may show the parent alone. Marks after values point to notes of the source that are not given here.

Tested on: Experimental autoimmune uveitits (EAU)
Assay: Experimental autoimmune uveitits (EAU) test in rats
Format: in vivo, LEWIS rats
Conditions: for EAU 1st: Day of first signs of EAU (mean±SD) / EAU 10: Incidence of EAU on day 10 (affected animals/animals per group) / EAU POS: Number of EAU positive rats (affected animals/animals per group until end of the study) / SCORE MAX DAY: day of maximum score / SCORE MAX SCORE: Maximum score (mean of both eye lesions±SD): oral once daily; for course and intensity of the disease compared with placebo controls: oral, 0.1 mg/kg compound of formula IIa or 15 mg/kg/day compound of formula I alone, combination at the same dosage levels
[1] = Example 1, 5 rats per group, 14 days, Dosis mg/kg/day: Cpd IIa 0.1, Cpd I 15, combination 1.5 [sic] + 15
[2] = Example 1, 14 days, Dosis mg/kg/day: Cpd IIa 0.1, Cpd I 15, combination 1.5 [sic] + 15
[3] = Example 1, scores 0 to 4 for 1 eye, 14 days, Dosis mg/kg/day: Cpd IIa 0.1, Cpd I 15, combination 1.5 [sic] + 15
[4] = Example 2, 6 rats per group, 14 days (14×), mg/kg/day: Cpd IIa 0.1, Cpd I 15, combination 15 + 0.1

Structure (SMILES)	EAU 1st: Day of first signs of EAU (mean±SD) [1]	EAU 10: Incidence of EAU on day 10 (affected animals/animals per group) [1]	EAU POS: Number of EAU positive rats (affected animals/animals per group until end of the study) [1]	SCORE MAX DAY: day of maximum score [2]	course and intensity of the disease compared with placebo controls (Example 1)	SCORE MAX SCORE: Maximum score (mean of both eye lesions±SD) [3]	EAU 1st: Day of first signs of EAU (mean±SD) [4]	EAU 10: Incidence of EAU on day 10 (affected animals/animals per group) [4]	EAU POS: Number of EAU positive rats (affected animals/animals per group until end of the study) [4]	SCORE MAX DAY: day of maximum score [4]	SCORE MAX SCORE: Maximum score (mean of both eye lesions±SD) [4]
CCCCCCCCc1ccc(CCC(N)(CO)CO)cc1 [Cpd IIa, 2-amino-2[2-(4-octylphenyl)ethyl]propane-1,3-diol hydrochloride]	10.5 (0.6) day	2/5	4/4*^)	13 days	not distinctively different from placebo controls	8.0 (0.0)	11.2 (1.0) day	0/6	6/6	14 days	8.0 (0.0)
CC[C@@H]1/C=C(\C)C[C@H](C)C[C@H](OC)[C@H]2O[C@@](O)(C(=O)C(=O)N3CCCC[C@H]3C(=O)O[C@H](/C(C)=C/[C@@H]3CC[C@H](Cl)[C@H](OC)C3)[C@H](C)[C@@H](O)CC1=O)[C@H](C)C[C@@H]2OC [Cpd I, 33-epi-33-chloro-FR 520]	11.8 (1.3) day	1/5	5/5	14 days	not distinctively different from placebo controls	6.8 (1.3)	11.5 (0.8) day	2/6	6/6	14 days	6.0 (2.5)
